Assay results taken from ChEMBL document CHEMBL3525936 (Drug Metab Dispos, 2012).

Tests used:
Liver microsome [1] = assay: Drug level in rat liver microsomes assessed as compound formation treated with 2 uM [14C]brivanib alaninate after 60 mins by LC/MS method in presence of 1 mM NADPH; assay type: ADME; conditions: 1 h
[2] = Drug level in monkey liver microsomes assessed as compound formation treated with 2 uM [14C]brivanib alaninate after 60 mins by LC/MS method in presence of 1 mM NADPH; assay type: ADME, Macaca mulatta; conditions: rhesus monkey, 1 h
Liver microsome [3] = assay: Drug level in human liver microsomes assessed as compound formation treated with 2 uM [14C]brivanib alaninate after 60 mins by LC/MS method in presence of 1 mM NADPH; assay type: ADME; conditions: 1 h
Liver microsome [4] = assay: Drug metabolism in rat liver microsomes assessed as 1-(4-(4-fluoro-2-methyl-1H-indol-5-yloxy)-5-methylpyrrolo[1,2-f][1,2,4]triazin-6-yloxy)propan-2-one formation at 2 uM after 60 mins by LC/MS method in presence of 1 mM NADPH; assay type: ADME
[5] = Drug metabolism in monkey liver microsomes assessed as 1-(4-(4-fluoro-2-methyl-1H-indol-5-yloxy)-5-methylpyrrolo[1,2-f][1,2,4]triazin-6-yloxy)propan-2-one formation at 2 uM after 60 mins by LC/MS method in presence of 1 mM NADPH; assay type: ADME, Macaca mulatta; conditions: rhesus monkey
Liver microsome [6] = assay: Drug metabolism in human liver microsomes assessed as 1-(4-(4-fluoro-2-methyl-1H-indol-5-yloxy)-5-methylpyrrolo[1,2-f][1,2,4]triazin-6-yloxy)propan-2-one formation at 2 uM after 60 mins by LC/MS method in presence of 1 mM NADPH; assay type: ADME
Liver microsome [7] = assay: Drug metabolism in rat liver microsomes assessed as 1-(4-(4-fluoro-2-methyl-1H-indol-5-yloxy)-5-methylpyrrolo[1,2-f][1,2,4]triazin-6-yloxy)propan-2-one formation at 2 uM after 60 mins by LC/MS method in absence of NADPH; assay type: ADME
[8] = Drug metabolism in monkey liver microsomes assessed as 1-(4-(4-fluoro-2-methyl-1H-indol-5-yloxy)-5-methylpyrrolo[1,2-f][1,2,4]triazin-6-yloxy)propan-2-one formation at 2 uM after 60 mins by LC/MS method in absence of NADPH; assay type: ADME, Macaca mulatta; conditions: rhesus monkey
Liver microsome [9] = assay: Drug metabolism in human liver microsomes assessed as 1-(4-(4-fluoro-2-methyl-1H-indol-5-yloxy)-5-methylpyrrolo[1,2-f][1,2,4]triazin-6-yloxy)propan-2-one formation at 2 uM after 60 mins by LC/MS method in absence of NADPH; assay type: ADME
[10] = Drug metabolism in monkey liver microsomes assessed as (R)-1-(4-(4-fluoro-2-methyl-1H-indol-5-yloxy)-5-methylpyrrolo[1,2-f][1,2,4]triazin-6-yloxy)propan-2-ol formation at 10 uM after 60 mins by LC/MS analysis in absence of NADPH; assay type: ADME, Macaca mulatta; conditions: rhesus monkey
Liver microsome [11] = assay: Drug metabolism in human liver microsomes assessed as (R)-1-(4-(4-fluoro-2-methyl-1H-indol-5-yloxy)-5-methylpyrrolo[1,2-f][1,2,4]triazin-6-yloxy)propan-2-ol formation at 10 uM after 60 mins by LC/MS analysis in absence of NADPH; assay type: ADME
Liver microsome [12] = assay: Drug metabolism in rat liver microsomes assessed as (R)-1-(4-(4-fluoro-2-methyl-1H-indol-5-yloxy)-5-methylpyrrolo[1,2-f][1,2,4]triazin-6-yloxy)propan-2-ol formation at 10 uM after 60 mins by LC/MS analysis in absence of NADPH; assay type: ADME
Liver cytosol [13] = assay: Drug metabolism in human liver cytosol assessed as sulfate metabolite formation by Michaelis-Menten equation […]; assay type: ADME
HUVEC [14] = assay: Inhibition of VEGF-stimulated HUVEC cell proliferation assessed as 5-bromo-2-deoxyuridine incorporation; assay type: functional, cell-based; conditions: Homo sapiens
HUVEC [15] = assay: Inhibition of FGF-stimulated HUVEC cell proliferation assessed as 5-bromo-2-deoxyuridine incorporation; assay type: functional, cell-based; conditions: Homo sapiens
HUVEC [16] = assay: Inhibition of VEGF/FGF-stimulated HUVEC cell proliferation assessed as 5-bromo-2-deoxyuridine incorporation; assay type: functional, cell-based; conditions: Homo sapiens
Liver cytosol [17] = assay: Drug metabolism in rat liver cytosol assessed as sulfate metabolite formation by Michaelis-Menten equation […]; assay type: ADME
[18] = Drug metabolism in monkey liver cytosol assessed as sulfate metabolite formation by Michaelis-Menten equation […]; assay type: ADME, Macaca mulatta; conditions: rhesus monkey
[19] = Cmax in Sprague-Dawley rat plasma at 60 mg/kg, po administered as single dose via gavage by LC/MS analysis; assay type: ADME, organism-based; parameters: dose 60 mg/kg, route oral
[20] = Tmax in Sprague-Dawley rat plasma at 60 mg/kg, po administered as single dose via gavage by LC/MS analysis; assay type: ADME, organism-based; parameters: dose 60 mg/kg, route oral
[21] = AUC (0 to t) in Sprague-Dawley rat plasma at 60 mg/kg, po administered as single dose via gavage by LC/MS analysis; assay type: ADME, organism-based; parameters: dose 60 mg/kg, route oral
[22] = Cmax in cynomolgus monkey plasma at 10 mg/kg, po administered as single dose via gavage by LC/MS analysis; assay type: ADME, organism-based, Macaca fascicularis; parameters: dose 10 mg/kg, route oral
[23] = Tmax in cynomolgus monkey plasma at 10 mg/kg, po administered as single dose via gavage by LC/MS analysis; assay type: ADME, organism-based, Macaca fascicularis; parameters: dose 10 mg/kg, route oral
[24] = AUC (0 to t) in cynomolgus monkey plasma at 10 mg/kg, po administered as single dose via gavage by LC/MS analysis; assay type: ADME, organism-based, Macaca fascicularis; parameters: dose 10 mg/kg, route oral
[25] = Cmax in healthy human plasma at 400 mg, po administered as single dose via gavage by LC/MS analysis; assay type: ADME, organism-based; parameters: dose 400 mg, route oral
[26] = Tmax in healthy human plasma at 400 mg, po administered as single dose via gavage by LC/MS analysis; assay type: ADME, organism-based
[27] = AUC (0 to t) in healthy human plasma at 400 mg, po administered as single dose via gavage by LC/MS analysis; assay type: ADME, organism-based

Compound | Drug metabolism (Liver microsome [1]) | Drug metabolism [2] | Drug metabolism (Liver microsome [3]) | Km (Liver cytosol [13]) [µM] | Km (Liver cytosol [17]) [µM] | Km [18] [µM] | IC50 (HUVEC [14]) [nM] | IC50 (HUVEC [15]) [nM] | IC50 (HUVEC [16]) [nM] | other results
CC(=O)COc1cn2ncnc(Oc3ccc4[nH]c(C)cc4c3F)c2c1C | metabolite_detected | metabolite_detected | metabolite_detected |  |  |  |  |  |  | 
Cc1cc2c(F)c(Oc3n[14cH]nn4cc(OC[C@@H](C)OC(=O)[C@H](C)N)c(C)c34)ccc2[nH]1 |  |  |  |  |  |  |  |  |  | Drug metabolism (Liver microsome [4]): metabolite_detected; Drug metabolism [5]: metabolite_detected; Drug metabolism (Liver microsome [6]): metabolite_detected; Drug metabolism (Liver microsome [7]): metabolite_not_detected; Drug metabolism [8]: metabolite_not_detected; Drug metabolism (Liver microsome [9]): metabolite_not_detected
Cc1c(OC[C@@H](C)O)cn2ncnc(Oc3ccc4[nH]c(CO)cc4c3F)c12 | metabolite_detected | metabolite_detected | metabolite_detected |  |  |  |  |  |  | 
Cc1cc2c(F)c(Oc3ncnn4cc(OC[C@H](C)O)c(C)c34)ccc2[nH]1 |  |  |  | 0.7 | 0.7 | 0.7 | 687 | 1010 | 807 | Drug metabolism [10]: metabolite_not_detected; Drug metabolism (Liver microsome [11]): metabolite_not_detected; Drug metabolism (Liver microsome [12]): metabolite_not_detected

More lines, main results first:

Drug metabolism (Liver microsome [1]) | Drug metabolism [2] | Drug metabolism (Liver microsome [3]) | Km (Liver cytosol [13]) [µM] | Km (Liver cytosol [17]) [µM] | Km [18] [µM] | Compound | IC50 (HUVEC [14]) [nM] | IC50 (HUVEC [15]) [nM] | IC50 (HUVEC [16]) [nM] | other results
metabolite_detected | metabolite_detected | metabolite_detected |  |  |  | Cc1c(OC[C@@H](C)O)cn2ncnc(Oc3ccc4[nH]c(C(=O)O)cc4c3F)c12 |  |  |  | 
 |  |  | 0.7 | 0.7 | 0.7 | Cc1cc2c(F)c(Oc3ncnn4cc(OC[C@@H](C)O)c(C)c34)ccc2[nH]1 [BRIVANIB] | 618 | 695 | 841 | Cmax [19]: 3500 ng/mL; Tmax [20]: 1 h; AUC(0-t) [21]: 7600 ng·h/mL; Cmax [22]: 1400 ng/mL; Tmax [23]: 1 h; AUC(0-t) [24]: 6800 ng·h/mL; Cmax [25]: 3500 ng/mL; Tmax [26]: 2 h; AUC(0-t) [27]: 21800 ng·h/mL
